Test results reported in BigSolDB 2.1.

CCOC(=O)Cc1c(C(=O)OCC)sc(N(CC(=O)OCC)CC(=O)OCC)c1C#N
solubility (mole fraction)
Settings | in acetone | in acetonitrile | in cyclohexane | in ethanol | in ethyl acetate | in isopropanol | in methanol | in n-butanol | in n-propanol | in toluene
283.15 K | 0.0364 | 0.0196 | 5.19e-05 | 0.000512 | 0.0224 | 0.000243 | 0.0012 | 0.000391 | 0.000617 | 0.0122
285.65 K | 0.0394 | 0.0211 | 6.04e-05 | 0.000635 | 0.0259 | 0.000308 | 0.00149 | 0.000489 | 0.000762 | 0.014
288.15 K | 0.043 | 0.0234 | 7.21e-05 | 0.00079 | 0.0296 | 0.000386 | 0.0018 | 0.000608 | 0.000953 | 0.0162
290.65 K | 0.0456 | 0.0255 | 8.6e-05 | 0.000971 | 0.0339 | 0.000478 | 0.0022 | 0.000753 | 0.00118 | 0.0187
293.15 K | 0.0498 | 0.028 | 0.000102 | 0.0012 | 0.0389 | 0.000592 | 0.00265 | 0.00094 | 0.00146 | 0.0216
295.65 K | 0.0538 | 0.0303 | 0.00012 | 0.00148 | 0.0442 | 0.000736 | 0.00326 | 0.00115 | 0.0018 | 0.0249
298.15 K | 0.0582 | 0.0334 | 0.000142 | 0.00178 | 0.0509 | 0.00091 | 0.00391 | 0.0014 | 0.00219 | 0.0286
300.65 K | 0.0627 | 0.0365 | 0.00017 | 0.00216 | 0.0578 | 0.00111 | 0.00464 | 0.00173 | 0.00266 | 0.0328
303.15 K | 0.0672 | 0.0396 | 0.000199 | 0.00264 | 0.066 | 0.00135 | 0.00556 | 0.00215 | 0.00327 | 0.0379
305.65 K | 0.073 | 0.0433 | 0.000236 | 0.0032 | 0.0741 | 0.00162 | 0.00659 | 0.00259 | 0.00403 | 0.0434
308.15 K | 0.079 | 0.0473 | 0.000279 | 0.0038 | 0.083 | 0.00197 | 0.00781 | 0.00316 | 0.00492 | 0.0498
310.65 K | 0.0853 | 0.0515 | 0.000324 | 0.00457 | 0.0927 | 0.00236 | 0.00925 | 0.0039 | 0.006 | 0.0567
313.15 K | 0.0921 | 0.0562 | 0.00038 | 0.00543 | 0.105 | 0.00286 | 0.0109 | 0.0047 | 0.00722 | 0.0647
315.65 K | 0.0995 | 0.0612 | 0.000444 | 0.00645 | 0.118 | 0.00345 | 0.0128 | 0.00577 | 0.00868 | 0.0737
318.15 K | 0.107 | 0.067 | 0.000516 | 0.00768 | 0.132 | 0.00413 | 0.015 | 0.00696 | 0.0104 | 0.0835
320.65 K | 0.116 | 0.0734 | 0.000596 | 0.00904 | 0.146 | 0.00494 | 0.0174 | 0.00838 | 0.0126 | 0.0946
323.15 K | 0.126 | 0.0805 | 0.0007 | 0.0107 | 0.163 | 0.00588 | 0.0198 | 0.0102 | 0.015 | 0.107
